Measured values taken from patent publication US7459449B2 (priority 2004, dated 2008).
Structures can show the parent of a compound that is named as a salt. Where two headings read alike, the source gives them in different places.

Tests used:
[1] = Tendency to form solvates (acetone); assay type: physicochemical; details: generally acetone as the solvent
Excerpt: Additionally the inventive salts are not prone to forming solvates. Solvates with organic solvents such as acetone, dichloromethane, dioxane, etc., are inconvenient in pharmaceutical applications because of the toxicity of the solvent. […] A typical example of such a solvate salt is the acetone solvate of olanzapine succinate. The solvent may nevertheless be present in the wet cake of the crude material after isolation in solid state, but a solvent-free product should be obtained by ordinary means of drying. A solvent-free salt (i.e. less than 0.5%, preferably less than 0.1%, of the solvent present) is particularly preferred as the absence of the solvent is advantageous for pharmaceutical applications.

Stability against light = assay type: physicochemical
Hygroscopicity = assay type: physicochemical
[2] = Water solubility test at 10 mg/ml; details: thermodynamic from solid
[3] = cited from earlier work
[4] = Isolation of the olanzapine salt in solid form; assay type: physicochemical
[5] = Stability of 1% aqueous solution against precipitation; details: for Is 1% solution stable from precipitation?: 1% aqueous solution, at least 12 to 24 hours (overnight)
Excerpt: (§1) A failure was considered to be 1% or more of impurities being formed; i.e. if 1% or more formed, then the salt is reported as “No,” not stable, for the corresponding test.

[6] = Solid state stability (impurity formation on storage); assay type: physicochemical; details: short period of storage
Excerpt: as §1

Compound	Is there low tendency to form solvates? [1]	Readily isolatable in solid form? [4]	Is 1% solution stable from precipitation? [5]	further results
Cc1cc2c(s1)Nc1ccccc1N=C2N1CCN(C)CC1.O=C(O)C(O)C(O)C(=O)O.O=C(O)C(O)C(O)C(=O)O [Di-L-tartrate, reference compound]	No			
Cc1cc2c(s1)Nc1ccccc1N=C2N1CCN(C)CC1.O=C(O)C=CC(=O)O.O=C(O)C=CC(=O)O [Dimaleate, reference compound]	No			
Cc1cc2c(s1)Nc1ccccc1N=C2N1CCN(C)CC1.Cc1cc2c(s1)Nc1ccccc1N=C2N1CCN(C)CC1.O=C(O)CCCCC(=O)O [Hemiadipate, Olanzapine Hemi-Adipate]	Yes			
Cc1cc2c(s1)Nc1ccccc1N=C2N1CCN(C)CC1.Cc1cc2c(s1)Nc1ccccc1N=C2N1CCN(C)CC1.O=S(=O)(O)O [Hemisulfate, reference compound]	No			
Cc1cc2c(s1)Nc1ccccc1N=C2N1CCN(C)CC1.O=C(O)CC(=O)O [Hydrogenmalonate, Olanzapine Hydrogenmalonate]	Yes			stability against the action of light (Stability against light): sufficiently stable against the action of light; hygroscopicity (Hygroscopicity): generally non-hygroscopic
CC(O)C(=O)O.Cc1cc2c(s1)Nc1ccccc1N=C2N1CCN(C)CC1 [Mono-L-lactate, Olanzapine Lactate]	Yes			
Cc1cc2c(s1)Nc1ccccc1N=C2N1CCN(C)CC1.O=C(O)c1ccccc1 [Monobenzoate, Olanzapine Benzoate]	Yes			stability against the action of light (Stability against light): sufficiently stable against the action of light; hygroscopicity (Hygroscopicity): generally non-hygroscopic
CCS(=O)(=O)O.Cc1cc2c(s1)Nc1ccccc1N=C2N1CCN(C)CC1 [Monoesylate, Olanzapine Esylate]	Yes			
Cc1cc2c(s1)Nc1ccccc1N=C2N1CCN(C)CC1 [Monohydrochloride, Olanzapine Monohydrochloride]				solubility [2]: > 10000 µg/mL
Cc1cc2c(s1)Nc1ccccc1N=C2N1CCN(C)CC1.O=S(=O)(O)O [Monosulfate, Olanzapine Hydrogensulfate]	No			
Cc1cc2c(s1)Nc1ccccc1N=C2N1CCN(C)CC1.O.O=C(O)c1cc2ccccc2c(Cc2c(O)c(C(=O)O)cc3ccccc23)c1O [Pamoate, olanzapine pamoate, reference compound]	No			water solubility (in words), background [3]: insoluble in water
Mandelate [reference compound]		No		
Olanzapine				water solubility (in words), background [3]: insoluble in water; solubility at pH 6.8 ([3]; pH 6.8, marketed free base): 0.02 mg/ml
Olanzapine Acetate [Monoacetate]	Yes	Yes	No	
Olanzapine Besylate [Monobesylate]	Yes	Yes	No	
Olanzapine Hemi-Succinate [Hemisuccinate]	No	Yes	No	
Olanzapine Hemifumarate	No	Yes	No	
Olanzapine Hydrogenmaleate	Yes	Yes	No	stability against the action of light (Stability against light): sufficiently stable against the action of light; hygroscopicity (Hygroscopicity): generally non-hygroscopic; water solubility (in words) (listed as maleate): good water solubility; water solubility (in words) (listed as olanzapine hydrogenmaleate): soluble in water; hydrolysis by water (liberation of olanzapine base in aqueous solution) ([5]; aqueous solution): hydrolysable by water
Olanzapine Mesylate [Monomesylate]	No	Yes	No	
Olanzapine Mono-Tartrate [Mono-L-tartrate]	No	Yes	Yes	
Tosylate [reference compound]		No		
olanzapine dibesylate [reference compound]		Yes**		solid state behaviour on storage [6]: become oily after a short period of storage
olanzapine dimesylate [reference compound]		Yes**		solid state behaviour on storage [6]: become oily after a short period of storage
